What is called EC50 is the concentration that produces a half-maximal response. The CC50 is the concentration giving 50% cytotoxicity. In general, AC50 refers to the midpoint of the concentration-response curve, whichever way the signal moves.

Each structure is given as a SMILES string. Calls of active or inactive are those of the source.

This passage reports EC50, CC50 and AC50 results from ChEMBL document CHEMBL1201862, “PubChem BioAssay data set” (2004).

A short description of data set [1]: NIH3T3 cell viability loss – ATP luminescence, mouse fibroblasts, counter-screen, dose response (AID 2010).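 Note: cells exposed to compound for about 90 hours before reading.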 The data set is classed as functional, cell-based.
Data set [2] can be described thus: Trypanosoma cruzi growth suppression in host cells – NIH3T3 host cells, beta-gal luminescence, confirmation (AID 2044).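 Note: intracellular parasites grown in NIH/3T3 mouse fibroblasts as host cells; luminescent beta-galactosidase reporter signal from transgenic T. cruzi replicating inside host cells; inhibitors lower the luminescence signal.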 The data set is classed as functional, cell-based.
Data set [3] is described as follows: NIH-3T3 fibroblast cytotoxicity, dose response, cytotoxicity control, cell-based, fluorescence, Alamar Blue, secondary assay (AID 2327).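 Note: NIH-3T3 mouse fibroblasts cultured with fluconazole at 8 µg/mL.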 The data set is classed as functional.
Data set [4] in a line: fluconazole-exposed Candida albicans growth modulators – fluorescence, retest, confirmation (AID 2467). The data set is classed as functional, cell-based.
Data set [5] deals with T1, Heat shock factor protein 1 (Mus musculus, UniProt P38532).
T1 sequence (P38532 whole entry): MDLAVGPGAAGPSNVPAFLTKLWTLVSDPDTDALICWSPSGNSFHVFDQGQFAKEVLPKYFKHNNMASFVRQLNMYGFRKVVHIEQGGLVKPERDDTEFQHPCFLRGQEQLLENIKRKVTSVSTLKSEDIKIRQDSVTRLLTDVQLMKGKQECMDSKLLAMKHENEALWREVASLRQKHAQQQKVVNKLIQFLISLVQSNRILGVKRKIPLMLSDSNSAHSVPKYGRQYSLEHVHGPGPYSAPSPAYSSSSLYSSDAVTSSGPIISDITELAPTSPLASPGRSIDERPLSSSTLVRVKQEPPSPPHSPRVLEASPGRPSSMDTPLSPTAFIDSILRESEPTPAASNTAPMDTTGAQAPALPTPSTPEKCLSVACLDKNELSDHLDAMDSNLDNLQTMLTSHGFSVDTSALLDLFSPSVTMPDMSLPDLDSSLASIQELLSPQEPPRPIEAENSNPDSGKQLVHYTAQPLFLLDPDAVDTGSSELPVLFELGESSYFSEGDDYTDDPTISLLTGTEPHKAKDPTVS
The data set is described as follows: decrease of HSF1-responsive luciferase luminescence – cell-based, NIH3T3, dose retest, confirmation (AID 2382).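 Note: NIH3T3 fibroblasts with HSF1-driven luciferase reporter stressed by proteasome inhibitor MG132; luminescence from HSF1-driven luciferase expression after 8 hours of MG132 stress.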 The data set is classed as functional.

Data set [6] in a line: viability of uninfected HEp-2 cells – cell-based, HTS, cytotoxicity control for RSV inhibitor project, dose response (AID 2410). Particulars: human respiratory syncytial virus. The data set is classed as functional.
A further data set has as its target Cytochrome P450 2C19 (Homo sapiens, UniProt P33261). The data set is described as follows: Cytochrome panel assay with activity outcomes. Panel member name: p450-cyp2c19 Compounds with AC50 equal or less than 10 uM are considered active. The data set is classed as functional.
The subject of another data set is Streptococcus. The data set is described as follows: GAS UMAA2166 growth inhibition – luminescence, BacTiterGlo, counter-screen for streptokinase expression inhibitor project, dose response (AID 1915).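 Note: potency for reduction of bacterial viability or growth.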 The data set is classed as functional, organism-based. (A counterscreen serves to expose hits that act by an unwanted route or on another target.)
Data set [7] concerns Streptococcus sp. 'group A'. Kind of data set: Streptococcus pyogenes SK(-)GAS viability under kanamycin – luminescence, BacTiterGlo, confirmation, counter-screen for streptokinase expression inhibitor project, dose response (AID 1900). The data set is classed as functional, organism-based.

Cytochrome P450 2C19, sequence (P33261 whole entry): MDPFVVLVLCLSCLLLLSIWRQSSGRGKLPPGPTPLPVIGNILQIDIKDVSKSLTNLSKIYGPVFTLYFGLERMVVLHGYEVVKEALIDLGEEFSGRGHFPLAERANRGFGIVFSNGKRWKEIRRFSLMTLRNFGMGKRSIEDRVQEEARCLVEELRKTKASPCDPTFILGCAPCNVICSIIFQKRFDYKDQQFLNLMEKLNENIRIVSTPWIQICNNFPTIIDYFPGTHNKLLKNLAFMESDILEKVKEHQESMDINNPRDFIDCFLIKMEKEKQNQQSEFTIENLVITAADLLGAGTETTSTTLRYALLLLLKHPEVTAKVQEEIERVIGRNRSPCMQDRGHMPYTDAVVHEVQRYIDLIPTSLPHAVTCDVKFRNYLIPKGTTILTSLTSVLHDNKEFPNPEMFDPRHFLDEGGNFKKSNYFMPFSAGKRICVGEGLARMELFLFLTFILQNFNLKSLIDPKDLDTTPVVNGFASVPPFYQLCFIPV

For `Cc1c(O)cccc1C(=O)N[C@@H](CSc1ccccc1)[C@H](O)CN1C[C@H]2CCCC[C@H]2C[C@H]1C(=O)NC(C)(C)C`, the EC50 was > 60 µM (not active) in data set [1] and 3.42 µM (active) in [2].
For `O=C(Cc1cccs1)Nc1cccc(-c2nc3ccccc3[nH]2)c1`, the EC50 was > 150 µM (inconclusive) in data set [3] and 3.52 µM (active) in [4].
For the compound `Cn1c(=O)c2cn(-c3ccc4c(c3)OCCO4)cc2n(C)c1=O`, the EC50 in [5] was > 195 µM (not active).
As for `CCC(=O)Nc1ccccc1C(=O)OCC(=O)c1ccc2ccccc2c1`, the CC50 in data set [6] was 25 µM (active).
`Nc1ccn([C@H]2O[C@@H](COP(=O)(O)O)[C@@H](O)[C@H]2O)c(=O)n1`: the AC50 result on Cytochrome P450 2C19 is given as “inconclusive”.
For `CCn1c2ccc(F)cc2c2nnc(SCCN3CCCCC3)nc21`, the EC50 was > 60 µM (not active) in data set [1] and 0.777 µM (active) in data set [2].
In the case of `CC(C)(C)NS(=O)(=O)c1cc2c3c(c1)CCN3C(=O)CC2`, in data set [5], the half-maximal effective concentration (EC50) is > 195 µM (not active).
In the case of `COc1ccccc1Cn1c(=O)c2ccccc2n2c(Sc3ncnc4sccc34)nnc12`, the CC50 in [6] is 19.6 µM (active).
Take `CSc1cc(-c2ccccc2)n(C)c(=O)c1C#N`: the figures for the EC50 in data set [3] and in data set [4] were 117 µM (active) and > 38 µM (not active), respectively.
For `CCNc1nc(NCC)nc(ON=C(C)C)n1`, at Cytochrome P450 2C19 (read-out: AC50), the AC50 was 17.8 µM (inconclusive).
On to `CC(C)(C)c1csc(NC(=O)Cn2cnc3ccccc3c2=O)n1`, for which the EC50 is > 150 µM (inconclusive) in [3] and > 38 µM (not active) in data set [4].
As for `CCOc1ccc(CN2CCC(C(=O)N3CCN(c4ccccc4F)CC3)CC2)cc1OC`, the concentration giving a half-maximal response (EC50) in [1] was > 30 µM (not active); in [2], 0.182 µM (active).
In the case of `CC(C)C[C@H](NC(=O)c1[nH]cnc1C(=O)N[C@@H](Cc1ccccc1)C(=O)OC(C)(C)C)C(=O)OC(C)(C)C`, the EC50 is 5.07 µM (active) with Streptococcus and 2.33 µM (active) in data set [7].
For the compound `CC(=O)NC12CC3CC(C1)CC(C(=O)Oc1ccc(N(C)S(=O)(=O)c4cc(C)ccc4C)cc1)(C3)C2`, in [6], the cytotoxic concentration (CC50) is 34.2 µM (active).
For the compound `Cn1c(=O)c(=O)n(C)c2cc(S(=O)(=O)NCCN3CCN(c4ccccc4F)CC3)ccc21`, the EC50 was > 60 µM (not active) in data set [1] and 0.496 µM (active) in [2].
For `Nc1cccc(/C=C/C(=O)O)c1`, the EC50 in data set [5] is > 195 µM (not active).
In the case of `CCCCNC(=O)NS(=O)(=O)c1cnccc1Sc1ccc(Cl)cc1`, the half-maximal activity concentration (AC50) on Cytochrome P450 2C19 (read-out: AC50) was 22.4 µM (inconclusive).
Turning to `COc1ccc(C(=O)C2CCCN(S(=O)(=O)c3ccccc3F)C2)c(C)c1` (centres undefined), the half-maximal effective concentration (EC50) in data set [5] is > 195 µM (not active).
As to `CCN1C(=O)/C(=C2/C(=O)Nc3ccccc32)c2cc(Br)ccc21`, the concentration giving a half-maximal response (EC50) in data set [1] was > 60 µM (inconclusive); in data set [2], 1.3 µM (active).
Consider `Cc1cccc(OCC(=O)OC2CCN(C)CC2)c1`, for which the concentration for a half-maximal effect (EC50) in data set [5] was > 195 µM (not active).
In the case of `Cc1nc2c(=O)oc3ccccc3c2n1-c1ccccc1`, the EC50 in data set [3] was > 150 µM (inactive); in data set [4], 2.15 µM (active).
As for `COC(=O)c1cccc(NC(=O)CN2CCN(Cc3ccccc3)CC2)c1`, the 50% effective concentration (EC50) in [5] is recorded as > 195 µM (not active).
In the case of `CCNc1nc(NC(C)C)nc(N2CC(=O)N(CC(=O)OCC)C2=N)n1`, the CC50 in data set [6] is 25.2 µM (active).
Turning to `COc1ccc(CCNC(=O)[C@H](C)N2C(=O)N3CCc4c([nH]c5ccccc45)[C@@]3(C)C2=O)cc1`, the results for the EC50 in data set [1] and in [2] were > 60 µM (not active) and 1.97 µM (active), respectively.
The matching figures for `O=C(CCc1ccc(Oc2cc([N+](=O)[O-])cc([N+](=O)[O-])c2)cc1)NC1CCCC1`: > 30 µM (not active) and 0.106 µM (active).
In the case of `O=C(CSCc1ccc(Cl)cc1)Nc1cc([N+](=O)[O-])ccc1O`, the EC50 in data set [3] was > 150 µM (inactive); in data set [4], 0.491 µM (active).
As for `N#Cc1ccc(OCCOCCNC2CCCC2)cc1`, the EC50 in data set [1] is > 60 µM (not active); in [2], 0.2 µM (active).
The matching figures for `CC1(C)Cc2c(C#N)c(SCCOc3ccccc3)nc(N3CCOCC3)c2CO1`: > 60 µM (not active) and 1.49 µM (active).
Regarding `C=CCN(C(=O)CSC1=NC(=O)CN1C(C)=O)c1nc(C)c(-c2ccccc2)s1`, the EC50 was > 30 µM (not active) in data set [1] and 1.58 µM (active) in [2].
With `CNC(S)=Nc1sc2c(c1C(=O)OC)CCC2`, the CC50 in data set [6] was 36.2 µM (active).
On the same count and under the same terms, for `CC(=O)COc1ccc2c3c(c(=O)oc2c1)CCCC3` the value was > 50 µM (active).
As for `O=C(COC(=O)c1cc[n+]([O-])cc1)Nc1cccc(Cl)c1Cl`, the EC50 in data set [5] is 23 µM (active).
For the compound `Fc1cccc(Cl)c1Cn1nnc(-c2ccc3c(c2)OCO3)n1`, the 50% cytotoxic concentration (CC50) in data set [6] was 26.2 µM (active).
As for `O=C(NCC1CCCO1)c1cc2c3ccccc3nc-2c(-c2cccc(Br)c2)[nH]1` (centres undefined), the EC50 in data set [1] was > 60 µM (not active); in [2] it was 0.882 µM (active).
In the case of `Cc1ccc(-c2csc(NC(=O)c3ccc(S(=O)(=O)N4CCc5ccccc54)cc3)n2)cc1`, the EC50 in data set [5] was > 195 µM (not active).
As to `CN1CCN(Cc2ccc(Sc3ccc(Cl)cc3)c([N+](=O)[O-])c2)CC1`, the results for the half-maximal effective concentration (EC50) in data set [1] and in data set [2] were > 60 µM (not active) and 1.13 µM (active), respectively.
`CCOc1ccc(NCC(=O)c2ccc(C)cc2)cc1`: the EC50 in data set [5] is > 195 µM (not active); in [1], > 30 µM (not active); in data set [2], 1.38 µM (active).
As to `Cc1ccccc1-c1nc2sc3c(c2c(=O)n1N)CCCC3`, in data set [5], the concentration giving a half-maximal response (EC50) is > 195 µM (not active).
With `CCOc1ccc(CN(C)CC(=O)Nc2cccc(S(=O)(=O)N(C)c3ccccc3)c2)cc1`, the EC50 is > 60 µM (not active) in [1] and 0.181 µM (active) in data set [2].
Take `O=C(COC(=O)c1cc(Cl)ccc1O)NNC(=O)c1ccc([N+](=O)[O-])cc1`: in [5], the concentration for a half-maximal effect (EC50) is given as > 195 µM (not active).
Take `Cc1ccc(S(=O)(=O)N(C)c2c(C)ccc(S(=O)(=O)N3CCN(C)CC3)c2C)cc1`: in data set [5], the EC50 is on record as > 195 µM (not active).
In the case of `CN1CCN(Cc2cccc(Oc3ccc(Cl)cc3)c2)CC1`, the EC50 in data set [1] is > 60 µM (inconclusive); in [2] it was 0.267 µM (active).
As to `Cc1ccccc1N1CCN(CCN2C(=O)CC(=C3c4ccccc4-c4ccccc43)C2=O)CC1`, the EC50 in [3] was > 160 µM (inactive); in data set [4], 3.89 µM (active).
As for `O=C(Oc1ccc2ccc(=O)oc2c1)c1ccco1`, the EC50 in data set [1] and in data set [2] was > 60 µM (not active) in each case.
Consider `COC(=O)C1=C(C)N(c2ccc(Cl)cc2)/C(=C/c2ccc(O)cc2)C1=O`, for which the CC50 in [6] is 36.3 µM (active).
Take `CCCCCCCCn1c(N2CCN(c3cccc(Cl)c3)CC2)nc2c1c(=O)[nH]c(=O)n2C`: the EC50 in [1] was > 60 µM (not active); in data set [2] it was 2.22 µM (active).
For the compound `N#Cc1cc2c(nc1SCC(=O)N1CCOCC1)CCCCC2`, the EC50 in data set [5] is 2.01 µM (active).
As to `CCc1c(C)sc(NC(=O)CN2CCN(C(=O)c3ccco3)CC2)c1C(=O)OC`, the cytotoxic concentration (CC50) in [6] was 12.7 µM (active).
The same measure, in the same setting: for `O=c1[nH]c(NCCO)nc2c1C1(CCCCC1)Cc1ccccc1-2` the value was > 50 µM (active).
Consider `CCc1nnc(NC(=O)CSc2nnc(CNc3cccc(C)c3)n2-c2ccccc2)s1`, for which the EC50 in data set [3] was > 150 µM (inactive); in [4] it was > 38 µM (not active).
The matching figures for `COc1ccc(CCn2c(C)cc3c(c2=O)C(c2ccc4c(c2)OCO4)C(C#N)=C(N)O3)cc1OC` (centres undefined): > 160 µM (inactive) and > 38 µM (not active).
For `CCCCn1c(-c2ccco2)nc2oc3ccccc3c(=O)c2c1=O`, the 50% effective concentration (EC50) in the data set with Streptococcus was 46.1 µM (active); in [7] it was 64 µM (active).
As for `Cc1cc(C)n(C(=O)c2ccncc2)n1`, the EC50 in data set [5] is listed as > 195 µM (not active).
`O=[N+]([O-])c1ccc(C2CCCC/C2=N/OCc2ccc(F)cc2)c([N+](=O)[O-])c1` (centres undefined): the EC50 in [3] is > 160 µM (inactive); in [4], 21.6 µM (active); in [1], > 60 µM (not active); in data set [2], 0.492 µM (active).
Turning to `Cc1ccc(NC(=O)CC2SC(N/N=C3\CCCc4ccccc43)=NC2=O)cc1` (centres undefined), the CC50 in data set [6] was 15.5 µM (active).
Still for that read-out and setting: for `COC(=O)/C(=N/Nc1ccc(C)cc1)N1CCCc2ccccc21` the value was 22.3 µM (active); for `O=C(N/N=C/c1cccc(Oc2ccccc2)c1)c1cccc(Br)c1`, 17 µM (active).
In the case of `c1ccc(-c2nn[nH]n2)nc1`, the EC50 in data set [5] is > 195 µM (not active).
